Results as given in patent publication US20120295292A1, “Detecting Protein Arginine Deiminase (PAD) Activity in Human Tissues and Sera” (University of South Carolina, priority 2011, published 2012).

System: PAD
Test: PAD activity in serum of mice with DSS-induced colitis (BAEE substrate, COLDER citrulline detection)
Type: in vivo
Details: serum of mice given 2% DSS for 1 week; Cl-amidine treated vs no treatment; p>0.005 as printed; FIG. 2A
Procedure: A mouse model of colitis was used to develop a method for detecting disease incidence and disease severity by measuring the PAD activity present in serum. In this model, mice were […] or orally administered 2% dextran sulfate sodium (DSS) for 1 week to induce colitis. This model induced moderate to severe colon inflammation, shortening of the colon, and ulcer formation. The efficacy was tested of the PAD inhibitor, Cl-amidine, to determine if PAD activity was diminished in a group of Cl-amidine treated mice versus a group receiving no treatment with the PAD inhibitor. As a control, mice were given water without 2% DSS.
To determine PAD activity levels within the mice, serum samples were collected, then resuspended in Homogenization Buffer (50 mM HEPES pH 7.6, 10% glycerol, 1% NP-40, 1 mM PMSF, and 2 mM DTT) and homogenized using a glass dounce homogenizer. Serum samples were then centrifuged at 10,600 g for 20 min to remove cellular debris. The protein concentration was measured using the Lowry assay. PAD activity was determined by incubating serum samples in a Reaction Buffer (100 mM 4-(2-hydroxyethyl)-1-piperazineethanesulfonic acid (“HEPES”) pH 7.6, 500 mM NaCl, […] (“DTT”), 100 mM CaCl2, and 100 mM N-benzoyl-L-arginine ethyl ester (“BAEE”)) as substrate for the PAD. Incubation was carried out for 2 h at 37° C. in duplicate before freezing in liquid nitrogen. […]

**Q.** For `NC(=O)[C@H](CCCN=C(N)CCl)NC(=O)c1ccccc1` [Cl-amidine], which “decrease in PAD activity as compared to the no treatment mice” value is on record?
**A.** greater than 2.3 fold
